{"source": "patent US5244918A", "about": "“Benzofuran derivative and pharmaceutical comprising the same as active ingredient” (Meiji Milk Products Co., Ltd., priority 1989, dated 1993)", "key": {"SRS-A production [1]": {"tested_on": "SRS-A production", "details": "Prostaglandins 26, 955-973 (1983); read-out: 50% inhibition concentration (known agent, literature); cited from earlier work"}, "SRS-A production [2]": {"tested_on": "SRS-A production", "assay": "SRS-A production inhibitive activity (sensitized guinea pig lung fragments, ileum bioassay)", "format": "cell-based, guinea pig (Hartley male)", "protocol": "LTC4 and LTD4 which consist of SRS-A are very strong chemical mediators of allergic bronchial asthma and the like. The inhibitory effect of Compound 1 against the production of SRS-A was therefore biologically measured.\nA suspension of 1 mg of egg white albumin and 0.5 ml of complete Freund's adjuvant was intraperitoneally injected to Hartley male guinea pigs. The same antigen liquid was again injected 2 or 3 weeks thereafter to effect the sensitization. The sensitized guinea pigs were sacrificed by bleeding, and the lung was washed with a Tyrode's solution and cut into pieces to prepare lung fragment specimens. 300 mg of the lung fragments were floated on 2.8 ml of the Tyrode's solution. After shaking the solution at 37° C. for 20 minutes, 0.1 ml of Compound 1 was added. Shaking this solution was carried out for a further 5 minutes, followed by the addition of 0.1 ml of an egg white albumin solution (the ultimate antigen concentration: 1 mg/ml). After the reaction at 37° C. for 20 minutes, 12 ml of methanol was added and the mixture was stirred. The reaction mixture was centrifuged, the supernatant was concentrated under reduced pressure to dryness, and the dry solid was dissolved into 1 ml of water to biologically measure LTs (SRS-A) contained therein.\nThe determination of the quantity of SRS-A produced was carried out by using the ileum enucleated from Hartley male guinea pigs and counting the constriction of the ileum in the presence of 10^-6 M Atropine and Pyrilamine. A standard curve for the standard sample was prepared based on LTD4 to determine the amount of SRS-A produced by the effect of Compound 1 as the amount of LTD4."}, "[3]": {"tested_on": "auricle edema induced with arachidonic acid", "assay": "Auricle edema inhibitive activity in mice (induced with arachidonic acid)", "format": "in vivo, mouse (ICR male)", "details": "topical", "protocol": "In vivo anti-inflammatory action of Compound 1 was tested using auricle edema in mice as a model.\nICR male mice (Japan Charles River), weighing 29.9-40.4 g, 8 week age, were anesthetized with pentobarbital (Trademark: Nembutal, manufactured by Dainabott-Dainippon Pharmaceutical Co., Ltd.) to measure the thickness of the right ear with a dial thickness gauge. 20 μl of Compound 1 and control compound (acetone) were applied (the amount hereinafter specified) to the inside of the right ear with microsyringe, and, 30 minutes later, 2 mg of arachidonic acid was applied in the same manner to the inside of the right ear. The thickness of the right ear was measured 60 minutes after the application of arachidonic acid. Mice were then sacrificed by vertebral cervical dislocation and a circle with a diameter of 7 mm was cut out from the center of the right ear with an ear punch to measure its weight. The test was performed twice; the amounts of Compound 1 applied were 4 mg, 1 mg, 0.4 mg, 0.04 mg, and 0.004 mg per ear for the first test and 1 mg, 0.2 mg, 0.04 mg, 0.008 mg, and 0.0016 mg per ear for the second test. Both Compound 1 and arachidonic acid were used as dissolved in acetone.\nThe results are shown in FIG. 8-1 (the first test) and FIG. 8-2 (the second test). […] The 50% effective dose (ED50) in the two experiments were very close to each other, 0.03-0.08 mg/ear."}, "5-lipoxygenase": {"biological_target": "T1, 5-lipoxygenase (Rattus norvegicus, UniProt P12527)", "T1 construct": "ultracentrifugation at 100,000×g for 90 minutes to collect a supernatant, which was served as a 5-lipoxygenase enzyme liquid; host or cells: RBL-1 (rat basophilic leukemia cells), 100,000×g supernatant of sonicated cells", "T1 sequence (P12527 1-673)": "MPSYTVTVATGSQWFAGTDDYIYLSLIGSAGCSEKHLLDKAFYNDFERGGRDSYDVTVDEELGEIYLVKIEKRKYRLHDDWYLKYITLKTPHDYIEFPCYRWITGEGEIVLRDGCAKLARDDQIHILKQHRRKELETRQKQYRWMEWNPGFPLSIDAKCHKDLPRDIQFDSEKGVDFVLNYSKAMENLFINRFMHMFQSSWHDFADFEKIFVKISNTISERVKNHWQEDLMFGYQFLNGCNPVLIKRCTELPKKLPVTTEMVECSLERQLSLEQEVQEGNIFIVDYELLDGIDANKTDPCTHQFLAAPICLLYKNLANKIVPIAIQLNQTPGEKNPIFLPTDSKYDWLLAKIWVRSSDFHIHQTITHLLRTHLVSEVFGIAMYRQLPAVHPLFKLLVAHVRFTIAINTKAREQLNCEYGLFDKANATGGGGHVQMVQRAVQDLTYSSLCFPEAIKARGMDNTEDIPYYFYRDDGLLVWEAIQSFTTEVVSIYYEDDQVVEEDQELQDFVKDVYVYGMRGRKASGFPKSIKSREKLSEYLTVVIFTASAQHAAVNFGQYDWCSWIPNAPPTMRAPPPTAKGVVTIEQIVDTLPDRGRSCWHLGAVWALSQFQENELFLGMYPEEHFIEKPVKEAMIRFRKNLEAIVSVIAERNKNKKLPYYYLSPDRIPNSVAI", "assay": "5-Lipoxygenase inhibitive activity (production of 5-HETE by RBL-1 cell supernatant)", "format": "biochemical", "details": "for IC50: inhibition of 5-HETE production, 37° C., 10 minutes, 100 μM arachidonic acid", "protocol": "2.5×10^7 RBL-1 cells (rat basophilic leukemia cells, purchased from Dainippon Pharmaceutical Co. Ltd.) were washed twice with 0.1M Tris-HCl buffer (pH 7.5) and ultrasonicated. The pulverized cell liquid was subjected to ultracentrifugation at 100,000×g for 90 minutes to collect a supernatant, which was served as a 5-lipoxygenase enzyme liquid in the test. […] After terminating the reaction by an addition of 50 μl of 1N HCl, the reaction mixture was extracted with 6 ml of ethyl acetate."}, "mice": {"tested_on": "mice", "assay": "Single administration toxicity test in mice", "details": "mouse, in vivo", "protocol": "Compound 1 was intravenously or intraperitoneally administered one time to groups of ICR male mice (age: 5 weeks, purchased from Japan SLC Co.), each group consisting of 5, to observe the death of the mice in 14 days. […] Thus, the fatal dose of Compound 1 in single intravenous administration to mice was above 20 mg/kg. […] The fatal dose of Compound 1 in single intraperitoneal administration to mice was about 100 mg/kg or more."}, "edema in paws of rats": {"tested_on": "edema in paws of rats", "assay": "Edema inhibitive activity in rat soles (arachidonate-induced paw edema)", "format": "in vivo, rat (Wister male)", "details": "200 mg/kg oral", "protocol": "In vivo anti-inflammatory action of Compound 1 was tested using edema in paws of rats as a model.\nWister male rats (Japan Charles River), weighing 150-170 g, 6 week age, were fasted from the previous day of the test for serving to the experiment.\nSamples (10 ml/kg) were orally administered to the control (solvent: 0.5% gum arabica) group and Compound 1 (200 mg/kg body weight) test group. After 2 hours, 100 μl of a sodium arachidonate solution (5 mg/ml, 0.1M carbonate buffer, pH 8.4) was injected in the paw to determine the increase of the edema volume after 1 hour. The increase of the edema volume was determined by subtracting the value measured 1 hour before the administration of arachidonate from the value measured 1 hour after the administration. The foot volume increase (ml, means±S.D.) in the control group was 0.822±0.131 (n=10), whereas that in Compound 1 test group was 0.664±0.104 (n=8)."}}, "note": "Like-named read-outs stand apart in the source and are kept apart here.", "data": [{"compound": "CC1=C(C)C(=O)C(CCCCC#CCCCC#CCO)=C(C)C1=O", "note": "[AA-861]", "values": [{"measurement": "IC50", "setting": "SRS-A production [1]", "value": 1800, "unit": "nM"}]}, {"compound": "C/C=C/C=C/C1Cc2cc(O)cc(O)c2O1", "note": "(stereo not drawn) [Compound 1, 2-(1-tans, 3-trans-pentadienyl)-2,3-dihydro-5,7-dihydroxybenzofuran]", "values": [{"measurement": "SRS-A inhibitory effect compared with AA-861 (in words)", "setting": "SRS-A production [2]; AA-861: 1.8×10^-6 M (literature)", "value": "equivalent to a known 5-lipoxygenase inhibitory agent, AA-861"}, {"measurement": "IC50", "setting": "SRS-A production [2]; Cavia porcellus, 20 min, sensitized guinea pig lung fragments, egg white albumin 1 mg/ml, 37° C., 20 min, read-out: 50% inhibition concentration, SRS-A production", "value": 4000, "unit": "nM"}, {"measurement": "SRS-A production inhibitory effect (in words)", "setting": "SRS-A production [2]; guinea pig lung", "value": "dependent on the concentration"}, {"measurement": "50% effective dose (ED50)", "setting": "[3]; inside of right ear, 30 min before 2 mg arachidonic acid, two experiments", "value": "0.03-0.08 mg/ear"}, {"measurement": "inhibitory effect against auricle edema (in words)", "setting": "[3]; ear thickness and weight, FIG. 8-1, 8-2", "value": "dose dependent inhibitory effect"}, {"measurement": "5-lipoxygenase inhibitory activity (in words)", "setting": "5-lipoxygenase", "value": "specific 5-lipoxygenase inhibitory activity"}, {"measurement": "IC50", "setting": "5-lipoxygenase", "value": 2000, "unit": "nM"}, {"measurement": "death of mice, intraperitoneal", "setting": "mice", "value": "no death in the mice occurred"}, {"measurement": "fatal dose, single intraperitoneal administration", "setting": "mice; ip", "value": "≥ 100", "unit": "mg/kg"}, {"measurement": "fatal dose, single intravenous administration", "setting": "mice; iv", "value": "above 20 mg/kg"}, {"measurement": "death of mice, intravenous", "setting": "mice; iv, 20 mg/kg", "value": "no mice were dead"}, {"measurement": "general conditions, body weight and autopsy, intravenous", "setting": "mice; iv, 20 mg/kg", "value": "No abnormality was observed"}, {"measurement": "foot volume increase (means±S.D.)", "setting": "edema in paws of rats; 2 h before arachidonate, 1 h after, n=8, control 0.822±0.131 (n=10)", "value": "0.664 ± 0.104", "unit": "mL"}, {"measurement": "edema inhibitory effect", "setting": "edema in paws of rats; versus control group", "value": 19.2, "unit": "%"}]}, {"compound": "CCCCCC1Cc2cc(O)cc(O)c2O1", "note": "(centres unmarked) [Compound 2, 2-n-pentyl-2,3-dihydro-5,7dihydroxybenzofuran]", "values": [{"measurement": "IC50", "setting": "5-lipoxygenase", "value": 1200, "unit": "nM"}]}, {"compound": "2-(1,3-pentadienyl)-2,3-dihydro-5-hydroxy(or methoxy)-7-methoxy(or hydroxy)benzofuran [Compound 3]", "values": [{"measurement": "IC50", "setting": "5-lipoxygenase", "value": 1500, "unit": "nM"}]}]}
